These results are taken from patent publication US20240262815A1, “HETEROARYL DERIVATIVE, METHOD FOR PREPARING SAME, AND PHARMACEUTICAL COMPOSITION COMPRISING SAME AS ACTIVE INGREDIENT” (VORONOI INC., priority 2021, published 2024).

In general, GI50 refers to the concentration giving 50% growth inhibition.

In one test the test system is SK-BR-3 cancer cells. Kind of test: Inhibitory activity against proliferation of SK-BR-3 cancer cells (CellTiter-Glo). It counts as cell-based. The conditions noted are these: Homo sapiens, SK-BR-3, 120 h, ErbB2-overexpressing SK-BR-3 cells, 120 hours after treatment. The procedure, abridged:
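Cells seeded 48 h before dosing (SK-BR-3 in McCOY'S 5A + 10% FBS; BT-474 in RPMI-1640 + 20% FBS), then exposed 120 h to 12 concentrations, 0.2 nM-5 μM final. Viability by CellTiter-Glo luminescence; GI50 from growth rate vs control, triplicate runs.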
In general terms: Cellular ATP, detected with luciferase, serves as a proxy for viable cell number.

The test system of a further test is BT-474 cancer cells. As to the kind of experiment: Inhibitory activity against proliferation of BT-474 cancer cells (CellTiter-Glo). It is filed as cell-based. The conditions noted are these: Homo sapiens, BT-474 ErbB2-overexpressing cancer cells, 120 hours after treatment. As for the experimental part:
To evaluate the inhibitory activity of a compound according to the present invention against the proliferation of ErbB2-overexpressing cancer cells, the following experiment were performed.
10% FBS-added McCOY'S 5A was used for SK-BR-3 cancer cells. 20% FBS-added RPMI-1640 was used for BT-474 cancer cells. Transduced Ba/F3 cells were cultured in a RPMI-1640 medium to which 1 μg/ml puromycin (Invitrogen) was added.
48 hours before compound treatment, each type of the SK-BR-3 and BT-474 cells were seeded at 5,000 cells/well in a white clear bottom 96 well plate (Corning). The compound was diluted in dimethyl sulfoxide (SK-BR-3: 3-fold dilution, a total of 12 concentrations, BT-474: […], a total of 12 concentrations) and injected at 1 μl to have the final concentration of 0.2 nM to 5 μM. As for measurement of live cells, 120 hours after treatment with the compound, a CellTiter-Glo luminescent cell-viability reagent (Promega) was used to store the cells at room temperature for 10 minutes, followed by measurement of luminescence using a reader (SynergyNeo, Biotek). Each test was repeated three times.
The result values were calculated as a cell growth rate (%) compared to the control group. A graph was plotted using the GraphPad Prism version 8.3.0 program, and GI50 values were calculated.

Take `C=CC(=O)Nc1cc(Nc2cc(N3OCC[C@@H]3c3cc(F)cc(Oc4cccc(F)c4)c3)ncn2)c(OC)cc1N1CCN(C)[C@@H](C)C1` [Example 223, N-(2-((S)-3,4-dimethylpiperazin-1-yl)-5-((6-((R)-3-(3-fluoro-5-(3-fluorophenoxy)-phenyl)isoxazol-idin-2-yl)pyrim-idin-4-yl)amino)-4-methoxyphen-yl)acrylamide]: the GI50 with SK-BR-3 cancer cells and in the test on BT-474 cancer cells was less than 50 nM in each case.
For `C=CC(=O)Nc1cc(Nc2cc(N3OCC[C@@H]3c3cc(F)cc(Oc4cccc(F)c4)c3)ncn2)c(OC)cc1N1CCC(N(C)C)CC1` [Example 224, (R)-N-(2-(4-(dimethylamino)-piperidin-1-yl)-5-((6-(3-(3-fluoro-5-(3-fluorophenoxy)-phenyl)isoxazol-idin-2-yl)pyrim-idin-4-yl)amino)-4-methoxyphen-yl)acrylamide], the GI50 in the test with SK-BR-3 cancer cells and in the test with BT-474 cancer cells was less than 50 nM throughout.
Regarding `C=CC(=O)Nc1cc(Nc2cc(N3OCC[C@@H]3c3cccc(Oc4cc(F)cc(F)c4)c3)ncn2)c(OC)cc1N1CCN(C)CC1` [Example 225, (R)-N-(5-((6-(3-(3-(3,5-difluoro-phenoxy)phenyl)-isoxazolidin-2-yl)pyrimidin-4-yl)amino)-4-methoxy-2-(4-methylpiperazin-1-yl)phenyl)-acrylamide], the GI50 in the test on SK-BR-3 cancer cells and in the test on BT-474 cancer cells was less than 50 nM each time.
`C=CC(=O)Nc1cc(Nc2cc(N3OCC[C@@H]3c3cccc(OCc4ccccc4)c3)ncn2)c(OC)cc1N(C)CCN(C)C` [Example 227, (R)-N-(5-((6-(3-(3-(benzyloxy)-phenyl)isoxazol-idin-2-yl)pyrim-idin-4-yl)amino)-2-((2-(dimethyl-amino)ethyl)-(methyl)amino)-4-methoxyphen-yl)acrylamide]: the GI50 with SK-BR-3 cancer cells and in the test on BT-474 cancer cells was less than 50 nM each time.
For `C=CC(=O)Nc1cc(Nc2cc(N3OCC[C@@H]3c3cccc(OCc4cccc(F)c4)c3)ncn2)c(OC)cc1N(C)CCN(C)C` [Example 228, (R)-N-(2-((2-(dimethylamino)-ethyl)(methyl)-amino)-5-((6-(3-(3-((3-fluorobenz-yl)oxy)phenyl)-isoxazolidin-2-yl)-pyrimidin-4-yl)-amino)-4-methoxy-phenyl)acrylamide], the GI50 in the test with SK-BR-3 cancer cells and in the test with BT-474 cancer cells was less than 50 nM in each case.
Regarding `C=CC(=O)Nc1cc(Nc2cc(N3OCC[C@@H]3c3cccc(-c4ccccc4)c3)ncn2)c(OC)cc1N1CCC(N2CCN(C3CC3)[C@@H](C)C2)CC1` [Example 231, N-(5-((6-((R)-3-([1,1′-biphenyl]-3-yl)isoxazolidin-2-yl)pyrimidin-4-yl)amino)-2-(4-((S)-4-cycloprop-yl-3-methylpiper-azin-1-yl)piperidin-1-yl)-4-methoxy-phenyl)acrylamide], the GI50 in the test on SK-BR-3 cancer cells and in the test on BT-474 cancer cells was less than 50 nM each time.
For `C=CC(=O)Nc1cc(Nc2cc(N3OCCC3c3cccc(-c4cnn(C)c4)c3)ncn2)c(OC)cc1N(C)CCN(C)C` (stereo not drawn) [Example 233, N-(2-((2-(dimeth-ylamino)ethyl)-(methyl)amino)-4-methoxy-5-((6-(3-(3-(1-methyl-1H-pyrazol-4-yl)phen-yl)isoxazolidin-2-yl)pyrimidin-4-yl)amino)phenyl)-acrylamide], the GI50 in the test on SK-BR-3 cancer cells and in the test on BT-474 cancer cells was less than 50 nM each time.
Turning to `C=CC(=O)Nc1cc(Nc2cc(N3OCC[C@@H]3c3cccc(-c4cccc(F)c4)c3)ncn2)c(OC)cc1N1CCN(C)CC1` [Example 242, (R)-N-(5-((6-(3-(3′-fluoro-[1,1′-biphen-yl]-3-yl)isoxazol-idin-2-yl)pyrim-idin-4-yl)amino)-4-methoxy-2-(4-methylpiperazin-1-yl)phenyl)-acrylamide], the GI50 in the test with SK-BR-3 cancer cells and in the test with BT-474 cancer cells was less than 50 nM each time.
On to `C=CC(=O)Nc1cc(Nc2cc(N3OCC[C@@H]3c3cccc(C(=O)NC(C)C)c3)ncn2)c(OC)cc1N1CCC(N2CCN(C3CC3)CC2)CC1` [Example 253, (R)-3-(2-(6-((5-acrylamido-4-(4-(4-cyclopropyl-piperazin-1-yl)-piperidin-1-yl)-2-methoxyphenyl)-amino)pyrimidin-4-yl)isoxazolidin-3-yl)-N-isopropyl-benzamide], for which the GI50 with SK-BR-3 cancer cells and with BT-474 cancer cells was less than 50 nM in each case.
On to `C=CC(=O)Nc1cc(Nc2cc(N3OCCC3c3cccc(-c4cc(F)cc(F)c4)c3)ncn2)c(OC)cc1N(C)CCN(C)C` (stereo not drawn) [Example 265, N-(5-((6-(3-(3′,5′-difluoro-[1,1′-biphenyl]-3-yl)-isoxazolidin-2-yl)-pyrimidin-4-yl)-amino)-2-((2-(dimethylamino)-ethyl)(methyl)-amino)-4-meth-oxyphenyl)acryl-amide], for which the GI50 in the test on SK-BR-3 cancer cells and with BT-474 cancer cells was less than 50 nM in each case.
On to `C=CC(=O)Nc1cc(Nc2cc(N3OCC[C@@H]3c3cccc(-c4cc(F)cc(F)c4)c3)ncn2)c(OC)cc1N1CCC(N2CCN(C3CC3)[C@@H](C)C2)CC1` [Example 274, N-(2-(4-((S)-4-cyclopropyl-3-methylpiperazin-1-yl)piperidin-1-yl)-5-((6-((R)-3-(3′,5′-difluoro-[1,1′-biphenyl]-3-yl)isoxazolidin-2-yl)pyrimidin-4-yl)amino)-4-meth-oxyphenyl)acryl-amide], for which the GI50 in the test on SK-BR-3 cancer cells and in the test with BT-474 cancer cells was less than 50 nM each time.
Consider `C=CC(=O)Nc1cc(Nc2cc(N3OCC[C@@H]3c3cccc(-c4cc(F)cc(F)c4)c3)ncn2)c(OC)cc1N1CCN(C(C)=O)CC1` [Example 275, (R)-N-(2-(4-acetyl-piperazin-1-yl)-5-((6-(3-(3′,5′-difluoro-[1,1′-biphenyl]-3-yl)-isoxazolidin-2-yl)-pyrimidin-4-yl)-amino)-4-meth-oxyphenyl)acryl-amide], for which the GI50 in the test on SK-BR-3 cancer cells and with BT-474 cancer cells was less than 50 nM in each case.
For the molecule `C=CC(=O)Nc1cc(Nc2cc(N3OCC[C@@H]3c3cccc(-c4cc(F)cc(F)c4)c3)ncn2)c(OC)cc1N1CCN(C)CC1` [Example 276, (R)-N-(5-((6-(3-(3′,5′-difluoro-[1,1′-biphenyl]-3-yl)isoxazolidin-2-yl)pyrimidin-4-yl)-amino)-4-methoxy-2-(4-methylpiper-azin-1-yl)phenyl)-acrylamide], the GI50 in the test with SK-BR-3 cancer cells and in the test with BT-474 cancer cells was less than 50 nM in each case.
For the molecule `C=CC(=O)Nc1cc(Nc2cc(N3OCC[C@@H]3c3cccc(-c4cc(F)cc(F)c4)c3)ncn2)c(OC)cc1N1CCN(CCC)CC1` [Example 278, (R)-N-(5-((6-(3-(3′,5′-difluoro-[1,1′-biphenyl]-3-yl)isoxazolidin-2-yl)pyrimidin-4-yl)-amino)-4-methoxy-2-(4-propylpiper-azin-1-yl)phenyl)-acrylamide], the GI50 in the test on SK-BR-3 cancer cells and in the test with BT-474 cancer cells was less than 50 nM in each case.
As to `C=CC(=O)Nc1cc(Nc2cc(N3OCC[C@@H]3c3cccc(-c4ccc(F)cc4F)c3)ncn2)c(OC)cc1N(C)CCN(C)C` [Example 279, (R)-N-(5-((6-(3-(2′,4′-difluoro-[1,1′-biphenyl]-3-yl)isoxazolidin-2-yl)pyrimidin-4-yl)amino)-2-((2-(dimethylamino)-ethyl)(methyl)-amino)-4-methoxy-phenyl)acrylamide], the GI50 in the test with SK-BR-3 cancer cells and in the test on BT-474 cancer cells was less than 50 nM in each case.
